Measured values: patent US20030187261A1, “Purine derivatives, process for their preparation and use thereof” (priority 2000, published 2003)

Assays:
[1] = system: HIV-1; conditions: CEM cells
Procedure: (§6) The infected cell cultures were incubated at 37° C. for 5 days in a humidified CO2 incubator. The cytopathicity of the virus was examined by determination of MT-4 cell viability by trypan blue dye staining.

[2] = system: HIV-2; experiment: anti-HIV-2 activity in CEM cells; assay type: cell-based
Procedure: as §6

[3] = system: MSV; experiment: MSV-induced transformation in murine embryo fibroblast C3H/3T3 cells; assay type: cell-based; conditions: day 6 post infection
Procedure: The cells were seeded in 1-ml-wells of 48-well plates and exposed to 80 PFU (plaque forming units) for 60-90 min. The virus was subsequently removed and culture medium containing appropriate concentrations of the tested compounds was added (1 ml per well). At day 6-post infection, MSV-induced transformation of the cell culture was examined microscopically. The results are summarised in Table 9 in comparison with the data on the prototype compounds.

[4] = system: HIV-2; experiment: HIV-2-induced cytopathicity in MT-4 cells; assay type: cell-based; conditions: for HIV-2 MT-4 IC50: MT-4 cells, 5 days
Procedure: as §6

[5] = system: HIV-1; conditions: for HIV-1 MT-4 IC50: MT-4 cells, 5 days
Procedure: as §6

[6] = system: B16 melanoma; experiment: MTT cytotoxicity assay, B16; assay type: cell-based, mouse; conditions: 72 hours (TCS50 in the method)
Excerpt: (§1) One of the parameters used as the basis for colorimetric assays is the metabolic activity of viable cells. For example, a microtiter assay, which uses the tetrazolium salt MTT, is now widely used to quantitate cell proliferation and cytotoxicity. For instance, this assay is used in drug screening programs and in chemosensitivity testing. Because only metabolically active cells cleave tetrazolium salts, these assays detect viable cells exclusively. In the case of MTT assay, yellow soluble tetrazolium salt is reduced to coloured water-insoluble formazan salt. After it is solubilized, the formazan formed can easily and rapidly be quantified in a conventional ELISA plate reader at 570 nm (maximum absorbance). The quantity of reduced formazan corresponds to number of vital cells in the culture. Human T-lymphoblastic leukemia cell line CEM; promyelocytic HL-60 and monocytic U937 leukemias; breast carcinoma cell lines MCF-7, BT549, MDA-MB-231; glioblastoma U87MG cells; cervical carcinoma cells HELA; sarcoma cells U20S and Saos2; hepatocellular carcinoma HepG2; mouse immortalized bone marrow macrophages B2.4 and B10A.4; P388D1 and L1210 leukemia; B16 and B16F10 melanomas were used for routine screening of the compounds according to the invention. The cells were maintained in Nunc/Corning 80 cm^2 plastic tissue culture flasks and cultured in cell culture medium (DMEM with 5 g/l glucose, 2 mM glutamine, 100 U/ml penicillin, 100 μg/ml streptomycin, 10% fetal calf serum and sodium bicarbonate).
(§2) The cell suspensions that were prepared and diluted according to the particular cell type and the, expected target cell density (2500-30000 cells per well based on cell growth characteristics) were added by pipette (80 μl) into 96-well microtiter plates. Inoculates were allowed a pre-incubation period of 24 hours at 37° C. and 5% CO2 for stabilisation. Four-fold dilutions of the intended test concentration were added at time zero in 20 μl aliquots to the microtiter plate wells. Usually, test compound was evaluated at six 4-fold dilutions. In routine testing, the highest well concentration was 266.7 μM, but it can be the matter of change dependent on the agent. All drug concentrations were examined in duplicates. Incubations of cells with the test compounds lasted for 72 hours at 37° C., in 5% CO2 atmosphere and 100% humidity. At the end of incubation period, the cells were assayed by using the MTT. Ten microliters of the MTT stock solution were pipetted into each well and incubated further for 1-4 hours. After this incubation period, formazan was solubilized by addition of 100 μl/well of 10% SDS in water (pH=5.5) followed by further incubation at 37° C. overnight. The optical density (OD) was measured at 540 nm with the Labsystem iEMS Reader MF (UK). The tumour cell survival (TCS) was calculated using the following equation: TCS=(ODdrug exposed well/mean ODcontrol wells)×100%. The TCS50 value, the drug concentration lethal to 50% of the tumour cells, was calculated from the obtained dose response curves.
(§3) The cytoxicity of novel compounds was tested on panel of cell lines of different histogenetic and species origin (Table 7). Equal activities were found in all tumour cell lines tested. […] Importantly, this observation distinguishes the purine derivatives of the invention from flavopiridol and related compounds, as their biological activity is dependent on p53 status.

[7] = system: DNA synthesis; experiment: DNA synthesis in Xenopus egg extracts ([α-32P]dATP incorporation); assay type: biochemical; conditions: [α-32P]dATP incorporation after 3 h; read-out: Inhibition of DNA synthesis IC50
Procedure: (§4) Metaphase-arrested Xenopus egg extracts were prepared as described previously by Blow “J. Cell Biol.” 1993, 122:993 and stored in liquid nitrogen. Demembranated Xenopus sperm nuclei were prepared as described by Blow & Laskey “Cell” 1986;47:577.
(§5) At concentrations of cdk inhibitors (see Table 6) ranging from 0.1-2 μM, chromosomes remained highly condensed and no nuclear envelope was visible. At 4-6 μM and higher concentrations, interphase nuclei appeared with partially decondensed chromatin and an intact nuclear envelope. […] For the inhibition effect to become detectable, the first 15-min incubation of the interphase extract is probably sufficient.

[8] = system: MPF activity; experiment: M-phase promoting factor inhibition in metaphase-arrested Xenopus egg extracts; assay type: biochemical; conditions: 1.5 h after addition
Procedure: as §4, §5

[9] = system: normal human lymphocytes; experiment: concanavalin A induced lymphocyte proliferation, [3H]-TdR incorporation; assay type: cell-based; conditions: 72 hours, read-out: ED50 (the source's name)
Procedure: Human heparinized peripheral blood was obtained from healthy volunteers by cubital vein punction. The blood was diluted in PBS (1:3) and mononuclear cells were separated by centrifugation in Ficoll-Hypaque density gradient (Pharmacia, 1.077 g/ml) at 2200 rpm for 30 minutes. Following centrifugation, lymphocytes were washed in PBS and resuspended in cell culture medium (RMPI 1640, 2 mM glutamine, 100 U/ml penicillin, 100 μg/ml streptomycin, 10% fetal calf serum and sodium bicarbonate).
The cells were diluted at target density of 1100000 cells/ml and were added by pipette (180 μl) into 96/well microtiter plates. Four-fold dilutions of the intended test concentration were added at time zero in 20 μl aliquots to the microtiter plate wells. Usually, test compound was evaluated at six 4-fold dilutions. In routine testing, the highest well concentration was 266.7 μM. All drug concentrations were examined in duplicates. All wells with exception of unstimulated controls were activated with 50 μl of concanavalin A (25 μg/ml). Incubations of cells with test compounds lasted for 72 hours at 37° C., in 5% CO2 atmosphere and 100% humidity. At the end of incubation period, the cells were assayed by using the [^3H]-TdR:
Cell cultures were incubated with […] (20 μl of stock solution 500 μCi/ml) per well for 6 hours at 37° C. and 5% CO2. The automated cell harvester was used to lyse cells in water and adsorb the DNA onto glass-fiber filters in the format of microtiter plate. The DNA incorporated [^3H]-TdR was retained on the filter while unincorporated material passes through. The filters were dried at room temperature overnight, sealed into a sample bag with 10-12 ml of scintillant. The amount of [^3H]-TdR present in each filter (in cpm) was determined by scintillation counting in a Betaplate liquid scintillation counter. The effective dose of immunosuppressant (ED) was calculated using the following equation: ED=(cpmdrug exposed well/mean cpmcontrol wells)×100%. The EDs50 value, the drug concentration inhibiting proliferation of 50% of lymphocytes, was calculated from the obtained dose response curves.
To evaluate immunosuppressive activity of substituted adenines, their ability to inhibit polyclonal mitogen induced proliferation of normal human lymphocytes was analyzed (Table 8). […] Effective immunosuppressive dose of new derivatives under in vitro conditions was close to 1-20 μM.

[10] = target: T1, CDC2 (Homo sapiens, UniProt P06493); experiment: p34cdc2 (CDC2) kinase inhibition assay, histone H1 substrate; assay type: biochemical; conditions: Table 3
T1 construct: made in house; host or cells: Sf9 insect cells, baculovirus co-infection
T1 sequence (P06493 whole entry, species assumed): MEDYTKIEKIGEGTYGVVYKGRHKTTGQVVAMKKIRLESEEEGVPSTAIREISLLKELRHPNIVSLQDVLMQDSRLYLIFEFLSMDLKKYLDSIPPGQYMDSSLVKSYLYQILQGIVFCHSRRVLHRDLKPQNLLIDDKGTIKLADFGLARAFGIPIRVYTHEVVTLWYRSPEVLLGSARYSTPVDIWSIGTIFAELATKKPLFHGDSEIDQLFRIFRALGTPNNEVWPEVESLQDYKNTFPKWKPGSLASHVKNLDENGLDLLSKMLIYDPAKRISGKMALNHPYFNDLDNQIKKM
T1 sequence (P14635 whole entry partner, species assumed): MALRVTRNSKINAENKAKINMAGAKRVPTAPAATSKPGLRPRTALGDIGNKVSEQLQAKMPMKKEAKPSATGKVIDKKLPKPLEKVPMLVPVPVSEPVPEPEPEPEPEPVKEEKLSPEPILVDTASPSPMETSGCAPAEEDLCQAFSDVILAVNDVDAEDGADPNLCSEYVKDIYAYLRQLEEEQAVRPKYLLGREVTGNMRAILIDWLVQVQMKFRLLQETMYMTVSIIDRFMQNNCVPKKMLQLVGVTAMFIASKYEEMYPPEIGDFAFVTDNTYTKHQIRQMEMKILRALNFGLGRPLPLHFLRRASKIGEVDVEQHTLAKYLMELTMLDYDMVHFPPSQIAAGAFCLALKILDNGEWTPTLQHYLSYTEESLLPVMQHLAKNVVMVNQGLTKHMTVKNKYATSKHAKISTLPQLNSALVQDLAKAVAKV

[11] = system: T-lymphoblastic leukemia cell line CEM; experiment: MTT cytotoxicity assay, CEM; assay type: cell-based, human; conditions: 72 hours (TCS50 in the method)
Excerpt: as §1, §2, §3

[12] = target: IκB-α; experiment: IκB-α kinase-inhibitory activity; assay type: biochemical; conditions: Table 3
Excerpt: Modification of 2,6,9-trisubstituted purines by a catechol-like substituent at R6 leads to an increase in cdk inhibitory activity of the tested compounds.

[13] = system: the cells; conditions: at 100 μg/ml
[14] = system: retroviruses; experiment: anti-retroviral activity in vitro; assay type: cell-based
Procedure: as §6

Nc1nc(NCc2ccc(O)c(O)c2)c2ncn(CCOCP(=O)(O)O)c2n1
HIV-1 CEM IC50 [1]: >20 µg/mL | HIV-2 CEM IC50 [2]: >20 µg/mL

CN(CCc1ccc(O)c(O)c1)c1nc(N)nc2c1ncn2CCOCP(=O)(O)O
HIV-1 CEM IC50 [1]: >20 µg/mL | MSV IC50 [3]: 0.9 µg/mL | HIV-2 MT-4 IC50 [4]: 32 µg/mL | HIV-2 CEM IC50 [2]: >20 µg/mL

CC(Cn1cnc2c(NCc3ccc(O)c(O)c3)nc(N)nc21)OCP(=O)(O)O (centres unmarked)
HIV-1 MT-4 IC50 [5]: 3.2 µg/mL | HIV-2 CEM IC50 [2]: 8.3 µg/mL

CC(Cn1cnc2c(N(C)CCc3ccc(O)c(O)c3)nc(N)nc21)OCP(=O)(O)O (centres unmarked)
HIV-2 MT-4 IC50 [4]: 3.2 µg/mL | HIV-2 CEM IC50 [2]: 7.8 µg/mL

CC(Cn1cnc2c(NC(CO)c3ccccc3)nc(N)nc21)OCP(=O)(O)O (centres unmarked)
HIV-1 MT-4 IC50 [5]: 10.1 µg/mL | HIV-1 CEM IC50 [1]: >20 µg/mL | HIV-2 CEM IC50 [2]: >20 µg/mL

CC[C@H](CO)Nc1nc(N(C)CCc2ccc(O)c(O)c2)c2ncn(C(C)C)c2n1
IC50 [6]: 6 µM | IC50 [7]: 1.3 µM | IC50 [8]: 1.12 µM | EC50 [9]: 1.5 µM | IC50 [10]: 0.95 µM | IC50 [11]: 6 µM | IC50 [12]: 3.2 µM

Nc1nc(NC(CO)c2ccccc2)c2ncn(CCOCP(=O)(O)O)c2n1 (racemic)
HIV-1 CEM IC50 [1]: >20 µg/mL | HIV-2 CEM IC50 [2]: >20 µg/mL

C[C@H](Cn1cnc2c(N)nc(N)nc21)OCP(=O)(O)O [(R)-PMPD]
selectivity index (ratio cytotoxic dose/antivirally active dose) ([5]; HIV-1): higher than 2000 | toxicity to the cells [13]: not toxic | EC50 retrovirus replication [14]: 0.01 to 0.1 µg/mL | selectivity index (ratio cytotoxic dose/antivirally active dose) ([4]; HIV-2): higher than 2000
